ChEMBL document CHEMBL4622850, “Discovery and optimization of new oxadiazole substituted thiazole RORγt inverse agonists through a bioisosteric amide replacement approach” (Bioorg Med Chem Lett, 2020)
Values after ≈ are worked out from the molar mass of the structure shown.

What was measured:
[1] = Solubility of compound by pH 7; assay type: physicochemical; details: buffer
[2] = Solubility of compound by pH 2; assay type: physicochemical; details: buffer
[3] = molecular target: T1, Nuclear receptor ROR-gamma (Mus musculus, UniProt P51450); assay: Inverse agonist activity at RORgammat in mouse whole blood assessed as reduction in IL-17a production; assay type: tissue-based
T1 sequence (P51450 whole entry): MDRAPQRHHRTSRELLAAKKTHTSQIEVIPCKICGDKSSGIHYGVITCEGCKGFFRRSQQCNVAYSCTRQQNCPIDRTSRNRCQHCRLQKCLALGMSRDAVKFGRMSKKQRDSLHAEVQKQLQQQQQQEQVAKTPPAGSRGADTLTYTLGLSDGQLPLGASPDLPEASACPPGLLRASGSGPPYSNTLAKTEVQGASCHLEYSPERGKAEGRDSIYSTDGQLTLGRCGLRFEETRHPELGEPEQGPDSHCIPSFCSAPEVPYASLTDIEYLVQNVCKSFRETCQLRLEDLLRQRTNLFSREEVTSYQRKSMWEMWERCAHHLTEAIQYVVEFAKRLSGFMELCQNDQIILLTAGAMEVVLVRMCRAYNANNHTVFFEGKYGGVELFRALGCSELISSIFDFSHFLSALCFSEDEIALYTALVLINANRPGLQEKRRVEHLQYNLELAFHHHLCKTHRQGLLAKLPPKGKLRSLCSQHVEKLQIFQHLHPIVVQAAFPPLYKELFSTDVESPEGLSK

[4] = Metabolic stability in rat liver microsomes assessed as half life; assay type: ADME, Microsome
[5] = molecular target: T2, Nuclear receptor subfamily 1 group I member 2 (Homo sapiens, UniProt O75469); assay: Activation of PXR (unknown origin) at 5 uM; assay type: ADME
T2 sequence (O75469 whole entry): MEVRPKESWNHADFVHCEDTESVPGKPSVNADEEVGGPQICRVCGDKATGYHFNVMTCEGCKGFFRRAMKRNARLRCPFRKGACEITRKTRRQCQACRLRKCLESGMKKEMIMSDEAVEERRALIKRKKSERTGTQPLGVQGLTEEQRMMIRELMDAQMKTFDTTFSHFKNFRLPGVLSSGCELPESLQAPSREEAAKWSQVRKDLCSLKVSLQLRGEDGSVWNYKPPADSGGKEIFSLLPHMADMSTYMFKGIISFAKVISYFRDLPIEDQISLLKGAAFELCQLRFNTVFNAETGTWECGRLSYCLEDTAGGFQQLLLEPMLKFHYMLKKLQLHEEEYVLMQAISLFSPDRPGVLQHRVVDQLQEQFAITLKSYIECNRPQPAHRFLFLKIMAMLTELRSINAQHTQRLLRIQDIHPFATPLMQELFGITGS

[6] = Oral bioavailability in rat at 1 mg/kg; assay type: ADME, organism-based; details: in vivo
[7] = Cmax in rat at 5 mg/kg, po; assay type: ADME, organism-based; parameters: dose 5 mg/kg, route oral; details: in vivo
[8] = AUC in rat at 5 mg/kg, po; assay type: ADME, organism-based; details: in vivo
Cytochrome P450 2C19 = Cytochrome P450 2C19 (Homo sapiens, UniProt P33261); assay: Inhibition of CYP2C19 (unknown origin); assay type: ADME
Cytochrome P450 2C19, sequence (P33261 whole entry): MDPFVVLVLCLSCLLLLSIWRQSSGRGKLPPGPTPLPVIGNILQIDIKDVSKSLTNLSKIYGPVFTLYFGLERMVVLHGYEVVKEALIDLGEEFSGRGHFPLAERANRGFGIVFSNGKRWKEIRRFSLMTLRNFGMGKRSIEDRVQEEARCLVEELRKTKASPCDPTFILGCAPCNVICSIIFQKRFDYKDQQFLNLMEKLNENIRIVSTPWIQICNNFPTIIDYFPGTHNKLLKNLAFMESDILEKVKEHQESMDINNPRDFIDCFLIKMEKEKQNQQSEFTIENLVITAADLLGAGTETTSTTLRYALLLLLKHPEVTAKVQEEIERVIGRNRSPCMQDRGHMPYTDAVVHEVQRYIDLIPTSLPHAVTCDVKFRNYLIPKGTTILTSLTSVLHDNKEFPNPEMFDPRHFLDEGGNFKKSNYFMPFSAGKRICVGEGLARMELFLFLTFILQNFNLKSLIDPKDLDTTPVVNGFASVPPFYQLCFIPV

Cytochrome P450 2C9 = Cytochrome P450 2C9 (Homo sapiens, UniProt P11712); assay: Inhibition of CYP2C9 (unknown origin); assay type: ADME
Cytochrome P450 2C9, sequence (P11712 whole entry): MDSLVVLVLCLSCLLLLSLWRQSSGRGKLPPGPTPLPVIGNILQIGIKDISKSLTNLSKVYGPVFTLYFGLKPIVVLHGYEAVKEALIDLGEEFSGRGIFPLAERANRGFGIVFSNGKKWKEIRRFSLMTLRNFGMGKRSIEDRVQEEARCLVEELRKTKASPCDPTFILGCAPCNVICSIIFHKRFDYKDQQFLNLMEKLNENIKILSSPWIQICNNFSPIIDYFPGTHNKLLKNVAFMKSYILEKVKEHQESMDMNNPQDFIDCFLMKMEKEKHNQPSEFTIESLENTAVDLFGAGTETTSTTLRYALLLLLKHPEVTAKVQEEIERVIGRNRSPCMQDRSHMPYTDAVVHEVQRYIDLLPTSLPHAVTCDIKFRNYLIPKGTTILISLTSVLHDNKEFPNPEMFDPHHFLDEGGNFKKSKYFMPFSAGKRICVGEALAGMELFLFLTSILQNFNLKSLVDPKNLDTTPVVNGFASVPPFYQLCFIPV

[9] = molecular target: T3, Nuclear receptor ROR-beta (Homo sapiens, UniProt Q92753); assay: Binding affinity to RORbeta (unknown origin) assessed as dissociation constant by thermal shift binding assay
T3 sequence (Q92753 whole entry): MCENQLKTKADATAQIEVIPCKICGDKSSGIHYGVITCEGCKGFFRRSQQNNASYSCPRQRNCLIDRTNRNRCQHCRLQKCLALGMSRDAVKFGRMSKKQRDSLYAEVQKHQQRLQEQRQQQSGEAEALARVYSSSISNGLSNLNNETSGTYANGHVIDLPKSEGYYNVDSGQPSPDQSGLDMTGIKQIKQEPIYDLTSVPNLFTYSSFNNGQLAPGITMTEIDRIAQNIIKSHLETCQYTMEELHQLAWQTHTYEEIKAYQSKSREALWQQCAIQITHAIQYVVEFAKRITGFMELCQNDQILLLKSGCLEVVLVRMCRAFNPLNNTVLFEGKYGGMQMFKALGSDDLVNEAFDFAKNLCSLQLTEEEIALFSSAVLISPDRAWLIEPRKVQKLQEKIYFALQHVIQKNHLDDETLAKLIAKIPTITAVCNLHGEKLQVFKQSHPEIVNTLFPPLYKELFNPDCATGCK

[10] = Half life in rat at 1 mg/kg, iv; assay type: ADME, organism-based; details: in vivo
[11] = Volume of distribution in rat at 1 mg/kg, iv; assay type: ADME, organism-based; details: in vivo
[12] = Clearance in rat at 1 mg/kg, iv; assay type: ADME, organism-based; details: in vivo

Structure (SMILES) | solubility [1] [µM] | solubility [2] [µM] | IC50 [3] [nM] | other results
COC(C)(C)Cc1nc(-c2nnc(CC(C)(C)C(=O)O)o2)sc1-c1ccc(S(=O)(=O)N[C@@H](C)C(F)(F)F)c(F)c1C(F)F | 363 (≈ 239 µg/mL) | < 4 | 9000 | –
CC[C@H](NS(=O)(=O)c1ccc(-c2sc(-c3nnc(CC(C)(C)C(=O)O)o3)nc2CC2CCCC2)c(C(F)F)c1F)C(F)(F)F | 69 (≈ 46.1 µg/mL) | < 4 | 230 | –
C[C@H](NS(=O)(=O)c1ccc(-c2sc(-c3nnc([C@H]4C[C@H](C(=O)O)C4)o3)nc2CC2CCC2)c(Cl)c1Cl)C(F)(F)F | 118 (≈ 75.5 µg/mL) | < 4 | – | –
C[C@H](NS(=O)(=O)c1ccc(-c2sc(C(=O)NCC(C)(C)O)nc2CC2CCC2)c(Cl)c1Cl)C(F)(F)F | – | – | – | half-life [4]: 0.617 h
CC[C@H](NS(=O)(=O)c1ccc(-c2sc(CC(C)(C)C(=O)O)nc2CC2CCC2)c(Cl)c1Cl)C(F)(F)F | 178 (≈ 105 µg/mL) | < 4 | – | Activity [5]: 40%
CC(C)(C)NS(=O)(=O)c1ccc(-c2sc(C(=O)N[C@H]3C[C@H](C(=O)O)C3)nc2CC2CCCCC2)c2ccccc12 | < 1 | < 1 | – | bioavailability [6]: 20%; Cmax [7]: 220 nM; AUC [8]: 302 ng·h/mL
CC[C@H](NS(=O)(=O)c1ccc(-c2sc(-c3nnc(CC(C)(C)C(=O)O)o3)nc2CC2CCCCC2)c(C(F)F)c1F)C(F)(F)F | < 4 | < 4 | 1540 | –
C[C@H](NS(=O)(=O)c1ccc(-c2sc(-c3cc(CC(C)(C)C(=O)O)on3)nc2CC2CCC2)c(Cl)c1Cl)C(F)(F)F | < 4 | < 4 | – | –
CC[C@H](NS(=O)(=O)c1ccc(-c2sc(CC(C)(C)C(=O)O)nc2CC2CCC2)c(Cl)c1)C(F)(F)F | – | – | – | Activity [5]: 2%
C[C@H](NS(=O)(=O)c1ccc(-c2sc(-c3nnc(CC(C)(C)C(=O)O)o3)nc2C(=O)N2CCCC[C@@H]2C)c(C(F)F)c1F)C(F)(F)F | 398 (≈ 278 µg/mL) | < 4 | – | –
C[C@H](NS(=O)(=O)c1ccc(-c2sc(-c3cc(CC(C)(C)C(=O)O)ncn3)nc2CC2CCC2)c(Cl)c1Cl)C(F)(F)F | – | – | – | IC50 (Cytochrome P450 2C19): 790 nM
C[C@H](NS(=O)(=O)c1ccc(-c2sc(CC(C)(C)C(=O)O)nc2CC2CCC2)c(C(F)(F)F)c1)C(F)(F)F | – | – | – | Activity [5]: 43%
CC(C)(O)CNC(=O)c1nc(CC2CCCCC2)c(-c2ccc(S(=O)(=O)NC(C)(C)C)c3ccccc23)s1 | < 4 | < 4 | – | –
C[C@H](NS(=O)(=O)c1ccc(-c2sc(CC(C)(C)C(=O)O)nc2CC2CCC2)c(Cl)c1Cl)C(F)(F)F | 268 (≈ 154 µg/mL) | < 4 | 1870 | Activity [5]: 33%
C[C@H](NS(=O)(=O)c1ccc(-c2sc(-c3nnc(CC(C)(C)C(=O)O)o3)nc2Cc2ccc(F)cc2)c(C(F)F)c1F)C(F)(F)F | 57 (≈ 38.8 µg/mL) | < 4 | – | –
CC(C)(C)NS(=O)(=O)c1ccc(-c2sc(-c3nnc(C(C)(C)O)o3)nc2CC2CCCCC2)c2ccccc12 | < 1 | < 1 | – | –
C[C@H](NS(=O)(=O)c1ccc(-c2sc(-c3nnc(CC(C)(C)C(=O)O)s3)nc2CC2CCC2)c(Cl)c1Cl)C(F)(F)F | – | – | – | IC50 (Cytochrome P450 2C9): 900 nM
C[C@H](NS(=O)(=O)c1ccc(-c2sc(-c3noc(C(C)(C)O)n3)nc2C(=O)N2CCC(F)CC2)c(Cl)c1Cl)C(F)(F)F | 6.4 (≈ 4.23 µg/mL) | 9.7 (≈ 6.41 µg/mL) | – | Kd [9]: > 91000 nM
C[C@H](NS(=O)(=O)c1ccc(-c2sc(-c3nnc(CC(C)(C)C(=O)O)o3)nc2CC2CCC2)c2ccccc12)C(F)(F)F | 24 (≈ 14.9 µg/mL) | < 4 | – | half-life [10]: 3.1 h; bioavailability [6]: 96%; Vd [11]: 1.1 L/kg; clearance [12]: 6 mL/min/kg; half-life [4]: > 3 h; Cmax [7]: 2300 nM; AUC [8]: 13100 ng·h/mL
C[C@H](NS(=O)(=O)c1ccc(-c2sc(-c3noc(CC(C)(C)C(=O)O)n3)nc2CC2CCC2)c(Cl)c1Cl)C(F)(F)F | 38 (≈ 24.4 µg/mL) | < 4 | 790 | –
C[C@H](NS(=O)(=O)c1ccc(-c2sc(-c3nnc(CC(C)(C)C(=O)O)o3)nc2CN2CCCC(F)(F)C2)c(C(F)F)c1F)C(F)(F)F | 182 (≈ 128 µg/mL) | 54 (≈ 38.1 µg/mL) | 448 | –
C[C@H](NS(=O)(=O)c1ccc(-c2sc(-c3cnc(CC(C)(C)C(=O)O)s3)nc2CC2CCC2)c(Cl)c1Cl)C(F)(F)F | < 4 | < 4 | – | –
C[C@H](NS(=O)(=O)c1ccc(-c2sc(-c3nnc(C(C)(C)O)o3)nc2C(=O)N2CCC(F)CC2)c(Cl)c1Cl)C(F)(F)F | 165 (≈ 109 µg/mL) | – | – | Kd [9]: > 50000 nM
CC[C@H](NS(=O)(=O)c1ccc(-c2sc(-c3nnc(CC(C)(C)O)o3)nc2C(=O)N2CCC(F)CC2)c(Cl)c1Cl)C(F)(F)F | 99 (≈ 68.2 µg/mL) | 41 (≈ 28.2 µg/mL) | 120 | –
CCN(CC)C(=O)c1nc(-c2nnc(C(C)(C)O)o2)sc1-c1ccc(S(=O)(=O)N[C@@H](C)C(F)(F)F)c(Cl)c1Cl | 55 (≈ 34.7 µg/mL) | – | 100 | half-life [4]: 1.58 h; Kd [9]: > 60000 nM
